Assay results reported in US20220312762A1, “USE OF ENCAPSULATED STEROLS TO MODIFY GROWTH OF CROPS, CONTROL, AGRICULTURAL PESTS AND AS NON-TOXIC PRE-EMERGENT HERBICIDES” (The Texas A&M University System, priority 2019, published 2022).

Key:
[1] = test system: Arabidopsis thaliana seeds; assay: Arabidopsis seed germination on sterol-supplemented media; type: in vivo; details: for decrease in germination: 100 μM exogenous sterol
Experimental: (§1) Plants and Plant Growth Conditions. Cholesterol (C3045, Sigma-Aldrich, USA), stigmasterol (S2424, Sigma-Aldrich, USA), and β-sitosterol (567152, Millipore-Sigma, USA) were prepared as stock solutions with a slight modification from that described in literature. Sterols were dissolved in 100% ethanol at 1.5 mM concentration and combined with methyl-β-cyclodextrin (MβCD) (Sigma-Aldrich, USA) at a molar ratio of 1:3 to a final concentration of 1-300 μM sterol and 1-900 μM MβCD. The probe was either sonicated for 30 minutes and vortexed for 15 minutes before use, or just vortexed for 30 min before use. To make a powered water soluble form, the sterol (40-70% w/w β-sitosterol) is dissolved in 100% ethanol and then solubilized in β-cyclodextrins or their derivatives in water. The solution is then reduced by evaporation or freeze-drying to a powdered form.
(§2) The wild-type and transgenic seeds of Arabidopsis thaliana were surface-sterilized with 70% ethanol, rinsed in sterile distilled water (+/− sterol) and incubated at 4° C. in the dark for 48 hr. The imbibed seeds were then planted either planted in Petri dishes or in hydroponic containers. For Petri dish growth, 1% (w/v) agar (Sigma-Aldrich, USA) was dissolved in ½ strength Murashige and Skoog medium containing vitamins (Caisson Labs, USA) (+/− sterol), and the pH was adjusted to between 5.6 and 5.8. The seedlings were grown in vertically placed Petri dishes containing this medium for 5-10 days at 22° C. under the continuous white light (50 μmol m^−2sec^−1 photosynthetically active radiation). Hydroponic culture was a modification of that described in previous literature. The seeds were placed on a mesh inserted into the bottom of a sterile polypropylene 2 oz cup with a lid (TY-M2-100, Bingwu, sold on Amazon) inset into either a 4 oz sterile polypropylene cup (TY-M4-N50 Bingwu, sold on Amazon) or a black 5.5 oz sterile polypropylene Dart Conex cup (B07BK1DPPS, Table Top King, sold on Amazon). Enough medium (½ strength Murashige and Skoog medium containing vitamins (Caisson Labs, USA) (+/− sterol), and the pH was adjusted to between 5.6 and 5.8) was added to bring it up to the level of the mesh. They were grown for […] to maturity (˜75 days) in an 18:6 hr photoperiod at 22° C. with 100 […] photosynthetically active. Following growth, they were then harvested for sterol analysis, leaf venation analysis, or fresh and dry weight analysis, or photographed for image analysis of root, hypocotyl, and stem growth and color. Seed from typical crop plants, Nicotiana tabacum (tobacco) and Zea mays (corn) were also sown in defined medium in the presence and absence of encapsulated sterol to assess percent germination after one week. Common weed seeds (Amaranthus palmeri, Poa annua, and Ambrosia sp.) collected from natural sources were either grown in defined media (agar and Mirashige and Skoog medium) or planted in natural soils (sandy loam) in 2 inch inserts in plastic one foot square flats. They were treated with 100-500 microMolar phytosterol mix (40% β-sitosterol, 20% campesterol, 7% stigmasterol (SKU BSIT100, Bulk Supplements) with a 3:1 molar ratio of methyl-β-cyclodextrin in water. Growth was assessed in treated and untreated (only water) by seedling emergence in days after planting in a greenhouse with natural lighting.
(§3) Materials and Methods. Arabidopsis seeds were given a pre-cold treatment with a mixture of sterol, cholesterol (Sigma-Aldrich) or stigmasterol (Sigma-Aldrich) (1 microMolar, 10 microMolar and 100 microMolar) and methyl-β-cyclodextrin (Sigma-Aldrich) (1:3 ratio) and then planted on Murashige and Skoog-½ strength (Caisson's Lab) 1% agar media supplemented with a mixture of respective sterol and cyclodexterin (1:3 ratio). Common weed seeds (Amaranthus palmeri, Poa annua, and Ambrosia sp.) collected from natural sources were planted in natural soils (sandy loam) in 2 inch inserts in plastic one foot square flats. […]

Arabidopsis thaliana = assay: Arabidopsis growth and development on sterol-supplemented media; type: in vivo; details: for growth phenotype: 100 μM exogenous sterol; for root anatomy: 100 μM sterol; for biomass: 8-days old seedlings on sterol-supplemented media, high sterol (FIG. 5A, 5B); for chlorophyll levels: plants grown on sterol media (FIG. 4A-4D); for root and root hair growth and development: sterol-supplemented media (FIG. 3A-3E)
Experimental: as §1, §2, §3

[2] = 10 microMolar encapsulated sterol
[3] = 100 microMolar encapsulated sterol

Row | SMILES | decrease in germination [1] | seed germination (in words) [1, 2] | seed germination (in words) [1, 3] | germination inhibited ([1]; 300 microMolar encapsulated sterol, after a week of growth (FIG. 6A)) | vein pattern (Arabidopsis thaliana; 100 μM) | growth phenotype (Arabidopsis thaliana) | root anatomy (Arabidopsis thaliana) | biomass (Arabidopsis thaliana) | chlorophyll levels (Arabidopsis thaliana) | root and root hair growth and development (Arabidopsis thaliana)
1 | CC(C)CCC[C@@H](C)[C@H]1CC[C@H]2[C@@H]3CC=C4C[C@@H](O)CC[C@]4(C)[C@H]3CC[C@]12C [cholesterol, Cholesterol] | 40% | seeds germinate | significantly inhibit | 90% | altered vein pattern | severe dwarfism | altered root anatomy | reduced biomass | change chlorophyll levels | alters
2 | CC[C@H](/C=C/[C@@H](C)[C@H]1CC[C@H]2[C@@H]3CC=C4C[C@@H](O)CC[C@]4(C)[C@H]3CC[C@]12C)C(C)C [stigmasterol] | 35% | seeds germinate | significantly inhibit |  |  | severe dwarfism | altered root anatomy | reduced biomass | change chlorophyll levels | alters
